Some test systems named below: SK-MEL-2 melanoma; OVCAR-8 ovarian; U251 CNS; OVCAR-3 ovarian; RXF 393 renal; UACC-62 melanoma; CCRF-CEM leukemia; HCT-15 colon; MDA-MB-231 breast.
What all share (test): DTP human tumour cell line panel, 48 h

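A five-concentration, 48-hour dose response in 96-well plates underlies each endpoint, interpolated linearly between surrounding concentrations. GI50 marks 50% less growth. The concentration for full growth arrest is given as TGI.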 Some results are limits rather than exact numbers.

The GI50 is the concentration that inhibits growth by half. Broadly, the TGI is the concentration giving total growth inhibition. The low end stands for more potent growth arrest, the high end for less potent growth arrest. In the case of `Clc1ccc(Nc2ccnc(NCCCNc3ccnc4cc(Cl)ccc34)n2)cc1`, the GI50 is 1.98 µM in the test with SK-MEL-2 melanoma, 1.82 µM in the test with OVCAR-8 ovarian and 1.48 µM with U251 CNS. Besides, the TGI amounted to 3.61 µM in the test with SK-MEL-2 melanoma, 3.62 µM in the test with OVCAR-8 ovarian and 2.91 µM with U251 CNS.

As to `CC(=O)/C=C/c1ccc(C)cc1`, the TGI with OVCAR-3 ovarian, in the test on SK-MEL-2 melanoma, in the test with RXF 393 renal, with OVCAR-8 ovarian, with UACC-62 melanoma and in the test with CCRF-CEM leukemia was greater than 100 µM each time. The TGI in the test on HCT-15 colon and in the test with U251 CNS was greater than 100 µM throughout.

As to `C1=Nc2ccccc2C=Nc2ccccc2C=Nc2ccccc2C=Nc2ccccc21.[Cl-].[Pt+2]`, the GI50 is 17.5 µM in the test on OVCAR-8 ovarian; 21.1 µM in the test on UACC-62 melanoma; 14.9 µM with CCRF-CEM leukemia; 22.3 µM in the test with HCT-15 colon; 10.5 µM in the test on U251 CNS. In addition, the concentration for total growth inhibition (TGI) was greater than 100 µM in the test with OVCAR-8 ovarian; 87.8 µM in the test on UACC-62 melanoma; 67.2 µM with CCRF-CEM leukemia; 83.1 µM in the test on HCT-15 colon; 27.5 µM with U251 CNS.

For the compound `CCOC(=O)/C(=C\c1ccc[nH]1)C(=O)c1ccccc1`, the concentration for total growth inhibition (TGI) in the test with OVCAR-3 ovarian, in the test with SK-MEL-2 melanoma, with RXF 393 renal, with OVCAR-8 ovarian, with UACC-62 melanoma and with CCRF-CEM leukemia was greater than 100 µM throughout. Further, the total growth inhibition concentration (TGI) with HCT-15 colon and in the test with U251 CNS was greater than 100 µM in each case.

For the compound `O=c1c2cccnc2ncn1CCN1CCCC1`, the TGI in the test with OVCAR-3 ovarian, with SK-MEL-2 melanoma, in the test on RXF 393 renal, with OVCAR-8 ovarian, in the test on UACC-62 melanoma and in the test on CCRF-CEM leukemia was greater than 100 µM in each case. Also, in the test on U251 CNS, the TGI is greater than 100 µM.

Take `CCC(C(=O)c1ccccc1)C(CCCC(=O)Nc1c(C)cccc1C)N=O` (stereo not drawn): the TGI in the test on OVCAR-3 ovarian, with SK-MEL-2 melanoma, in the test on OVCAR-8 ovarian, in the test on UACC-62 melanoma, with CCRF-CEM leukemia and with HCT-15 colon was greater than 100 µM throughout. For the same compound, the TGI in the test with U251 CNS is greater than 100 µM.

On to `CCOP(=O)(OCC)C1=NC=CC=CC1n1c(-c2ccccc2)nn(CC)c1=O` (stereo not drawn), for which the TGI with OVCAR-3 ovarian, in the test on SK-MEL-2 melanoma, in the test on RXF 393 renal, in the test on OVCAR-8 ovarian, in the test with UACC-62 melanoma and with CCRF-CEM leukemia was greater than 100 µM in each case. The concentration for total growth inhibition (TGI) with HCT-15 colon and with U251 CNS was greater than 100 µM in each case.

Consider `Cc1cc2cn3c4cccnc4[nH]c(=O)c3c2cc1C`, for which the GI50 in the test with OVCAR-3 ovarian was 1.77 µM; with RXF 393 renal, 1.46 µM; with UACC-62 melanoma it was 1.38 µM; in the test on HCT-15 colon, 1.41 µM. Moreover, the TGI came out at 3.22 µM in the test with OVCAR-3 ovarian, 2.88 µM with RXF 393 renal, 2.78 µM in the test with UACC-62 melanoma and 2.87 µM in the test with HCT-15 colon.

With `CC(C)C(=O)/C=C/c1ccc(Cl)c(Cl)c1`, the TGI with OVCAR-3 ovarian was found to be 27.6 µM; in the test with SK-MEL-2 melanoma, 31.9 µM; in the test on RXF 393 renal, 33.5 µM; with OVCAR-8 ovarian it was 45.8 µM; with UACC-62 melanoma it was 34.9 µM; in the test on CCRF-CEM leukemia, 81.7 µM. The compound also displayed a TGI with U251 CNS of 30.7 µM.

Turning to `C=C1C(=O)O[C@H]2[C@H]1CC/C(Cn1cc(-c3cc(C)c(C)cc3C)nn1)=C\CC[C@@]1(C)O[C@@H]21`, the GI50 is 1.03 µM in the test with OVCAR-3 ovarian; 1.75 µM with SK-MEL-2 melanoma; 1.11 µM in the test with MDA-MB-231 breast; 0.962 µM with RXF 393 renal; 0.927 µM in the test on OVCAR-8 ovarian; 1.13 µM with UACC-62 melanoma. Further, the GI50 in the test with CCRF-CEM leukemia is 0.458 µM; in the test with HCT-15 colon, 0.201 µM; in the test with U251 CNS, 1.53 µM. Moreover, the TGI in the test with OVCAR-3 ovarian came to 2.19 µM; with SK-MEL-2 melanoma, 3.59 µM; with MDA-MB-231 breast it was 2.62 µM; in the test with RXF 393 renal, 2.21 µM; with OVCAR-8 ovarian it was 2.38 µM; in the test on UACC-62 melanoma it was 2.56 µM. Besides, the TGI worked out at 2.65 µM in the test with CCRF-CEM leukemia, 0.548 µM with HCT-15 colon and 2.91 µM with U251 CNS.

Take `CSc1ncnc2c1CCN2`: the GI50 with OVCAR-3 ovarian, in the test on SK-MEL-2 melanoma, in the test on OVCAR-8 ovarian and in the test with UACC-62 melanoma was greater than 100 µM throughout. The TGI in the test on SK-MEL-2 melanoma, in the test with OVCAR-8 ovarian, in the test with UACC-62 melanoma and with HCT-15 colon was greater than 100 µM in each case.

Consider `COc1cc(/C=C(\OC(C)=O)c2ccc3c(c2)OCO3)cc(OC)c1OC`, for which the concentration for total growth inhibition (TGI) in the test with OVCAR-3 ovarian is 49.2 µM; in the test with SK-MEL-2 melanoma, 57.9 µM; with RXF 393 renal it was greater than 100 µM; in the test with OVCAR-8 ovarian it was 33.9 µM; in the test with UACC-62 melanoma, 34.2 µM; with CCRF-CEM leukemia, greater than 100 µM. Also, the values for the TGI with HCT-15 colon and in the test on U251 CNS were 36.9 µM and 47.4 µM, respectively.

For the compound `N#CC1CC2(C(=O)C1=O)c1ccccc1-c1ccccc12` (stereo not drawn), the total growth inhibition concentration (TGI) with OVCAR-3 ovarian, with SK-MEL-2 melanoma, with RXF 393 renal, in the test on OVCAR-8 ovarian, with UACC-62 melanoma and in the test on CCRF-CEM leukemia was greater than 100 µM each time. Moreover, the concentration for total growth inhibition (TGI) with HCT-15 colon and with U251 CNS was greater than 100 µM in each case.

For the compound `Cn1cnc([N+](=O)[O-])c1Sc1nnnn1-c1ccccc1`, the TGI in the test with OVCAR-3 ovarian came out at 26.6 µM; with SK-MEL-2 melanoma it was 29.5 µM; in the test on OVCAR-8 ovarian it was 27.9 µM; in the test with UACC-62 melanoma, 27.4 µM; in the test with CCRF-CEM leukemia, 7.12 µM; in the test with U251 CNS it was 26 µM.

Turning to `O=C(NCc1ccncc1)C1COc2cc(-c3cc(=O)c4ccccc4o3)ccc2O1` (stereo not drawn), the TGI in the test on OVCAR-3 ovarian, in the test with SK-MEL-2 melanoma, in the test with RXF 393 renal, with OVCAR-8 ovarian, in the test on UACC-62 melanoma and with CCRF-CEM leukemia was greater than 100 µM each time. The TGI in the test with HCT-15 colon and in the test on U251 CNS was greater than 100 µM in each case.

As to `N#CC1C2CCC3(CC2CCN1C(=O)c1ccccc1)OCCO3` (stereo not drawn), the TGI in the test on OVCAR-3 ovarian is greater than 100 µM; in the test with SK-MEL-2 melanoma it was 61.9 µM; in the test on RXF 393 renal, greater than 100 µM; with OVCAR-8 ovarian, greater than 100 µM; with UACC-62 melanoma, greater than 100 µM; with CCRF-CEM leukemia, greater than 100 µM. For the same compound, the TGI in the test with HCT-15 colon and in the test on U251 CNS was greater than 100 µM throughout.

Values taken from PubChem BioAssay (NCI).
